Test results published in patent US20240166643A1, “IMIDAZO[1,2-A]PYRIDINE COMPOUNDS AND THEIR USE IN THERAPY” (Imperial College Innovations Limited, priority 2020, published 2024).

Test system: Plasmodium falciparum 3D7
Assay: SYBR Green assay, Plasmodium falciparum strain 3D7
Format: cell-based
Conditions: P. falciparum strain 3D7, 96 h incubation, read-out: Pf EC50 strain 3D7

Compound	EC50
CC1NCCN(c2ncc(Cl)c(N3CC(C(=O)NC(C)(C)c4cnc5ccccn45)C3)n2)C1C (stereo not drawn) [Example 79]	0.0022 µM
COc1cnc(N2C[C@@H](C)N(C)[C@H](C)C2)nc1N1CC(C(=O)NC(C)(C)c2cnc3ccccn23)C1 [Example 91, N-(2-{imidazo[1,2-a]pyridin-3-yl}propan-2-yl)-1-{5-methoxy-2-[(3R,5R)-3,4,5-trimethylpiperazin-1-yl]pyrimidin-4-yl}azetidine-3-carboxamide]	0.23 µM
C[C@@H]1CN(c2ncc(Cl)c(N3CC(C(=O)NC(C)(C)c4cnc5ccccn45)C3)n2)[C@H](C)CN1C [Example 110, 1-{5-chloro-2-[(2R,5R)-2,4,5-trimethylpiperazin-1-yl]pyrimidin-4-yl}-N-(2-{imidazo[1,2-a]pyridin-3-yl}propan-2-yl)azetidine-3-carboxamide]	0.066 µM
C[C@@H]1CN(c2ncc(F)c(N3CC(C(=O)NC(C)(C)c4cnc5ccccn45)C3)n2)[C@@H](C)CN1C [Example 111, 1-{5-fluoro-2-[(2S,5R)-2,4,5-trimethylpiperazin-1-yl]pyrimidin-4-yl}-N-(2-{imidazo[1,2-a]pyridin-3-yl}propan-2-yl)azetidine-3-carboxamide]	0.45 µM

Further lines, results first:

EC50	Compound
0.035 µM	C[C@@H]1CN(c2cc(N3CC(C(=O)NC(C)(C)c4cnc5ccccn45)C3)c(F)cn2)CCN1C [Example 104, 1-{2-[(3R)-3,4-dimethylpiperazin-1-yl]-5-fluoropyridin-4-yl}-N-(2-{imidazo[1,2-a]pyridin-3-yl}propan-2-yl)azetidine-3-carboxamide]
0.12 µM	C[C@@H]1CN(c2ncc(Cl)c(N3CC(C(=O)NC(C)(C)c4cnc5ccccn45)C3)n2)[C@@H](C)CN1C [Example 109, 1-{5-chloro-2-[(2S,5R)-2,4,5-trimethylpiperazin-1-yl]pyrimidin-4-yl}-N-(2-{imidazo[1,2-a]pyridin-3-yl}propan-2-yl)azetidine-3-carboxamide]
> 1 µM	C[C@H]1CN(C)CCN1c1ncc(Cl)c(N2CC(C(=O)N(C)Cc3cnc4ccccn34)C2)n1 [Example 106, 1-{5-chloro-2-[(2S)-2,4-dimethylpiperazin-1-yl]pyrimidin-4-yl}-N-{imidazo[1,2-a]pyridin-3-ylmethyl}-N-methylazetidine-3-carboxamide]

Target: Human NMT1 (HsNMT1) (Homo sapiens, UniProt P30419)
Sequence (P30419 whole entry, looked up): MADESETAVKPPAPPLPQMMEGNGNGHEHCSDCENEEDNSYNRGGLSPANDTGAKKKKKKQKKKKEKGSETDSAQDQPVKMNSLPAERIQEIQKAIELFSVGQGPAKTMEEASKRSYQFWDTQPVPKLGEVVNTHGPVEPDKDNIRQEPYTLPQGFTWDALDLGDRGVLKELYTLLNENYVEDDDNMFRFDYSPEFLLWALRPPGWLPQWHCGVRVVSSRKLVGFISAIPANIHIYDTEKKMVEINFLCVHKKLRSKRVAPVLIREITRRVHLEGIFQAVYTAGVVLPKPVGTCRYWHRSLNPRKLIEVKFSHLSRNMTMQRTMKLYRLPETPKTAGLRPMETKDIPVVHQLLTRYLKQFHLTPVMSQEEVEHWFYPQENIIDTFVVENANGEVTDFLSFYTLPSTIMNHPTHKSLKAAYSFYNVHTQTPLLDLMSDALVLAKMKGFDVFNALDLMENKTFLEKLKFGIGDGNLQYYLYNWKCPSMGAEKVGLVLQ
Assay: biochemical
Conditions: not given

IC50	Compound
0.19 µM	CN(C(=O)C1CN(c2nc(N3CC4CC3CN4)ncc2Cl)C1)C(C)(C)c1cnc2ccccn12 (stereo not drawn) [Example 132, 1-(2-(2,5-diazabicyclo[2.2.1]heptan-2-yl)-5-chloropyrimidin-4-yl)-N-(2-(imidazo[1,2-a]pyridin-3-yl)propan-2-yl)-N-methylazetidine-3-carboxamide]
0.146 µM	C[C@H]1CN(c2ncc(Cl)c(N3CC(C(=O)N(C)C(C)(C)c4cnc5ccccn45)C3)n2)CCN1C [Example 140, (S)-1-(5-chloro-2-(3,4-dimethylpiperazin-1-yl)pyrimidin-4-yl)-N-(2-(imidazo[1,2-a]pyridin-3-yl)propan-2-yl)-N-methylazetidine-3-carboxamide]
0.008 µM	CC(C)(NC(=O)C1CN(c2nc(N3CCCNCC3)nc3ccsc23)C1)c1cnc2ccccn12 [Example 123, 1-(2-(1,4-diazepan-1-yl)thieno[3,2-d]pyrimidin-4-yl)-N-(2-(Imidazo[1,2-a]pyridin-3-yl)propan-2-yl)azetidine-3-carboxamide]
0.234 µM	CN(C(=O)C1CN(c2nc(N3CCC(N)CC3)ncc2Cl)C1)C(C)(C)c1cnc2ccccn12 [Example 128, 1-(2-(4-aminopiperidin-1-yl)-5-chloropyrimidin-4-yl)-N-(2-(Imidazo[1,2-a]pyridin-3-yl)propan-2-yl)-N-methylazetidine-3-carboxamide]
0.179 µM	CN(C(=O)C1CN(c2nc(N3CCCC(N)CC3)ncc2Cl)C1)C(C)(C)c1cnc2ccccn12 (stereo not drawn) [Example 131, 1-(2-(4-aminoazepan-1-yl)-5-chloropyrimidin-4-yl)-N-(2-(imidazo[1,2-a]pyridin-3-yl)propan-2-yl)-N-methylazetidine-3-carboxamide]
